Data on eight compounds can be found in BindingDB's records for doi:10.1016/j.bioorg.2015.02.005 (North-West University, 2015).

The target in one test is T1, Adenosine receptor A1 (Rattus norvegicus, UniProt P25099).
T1 sequence (P25099 whole entry): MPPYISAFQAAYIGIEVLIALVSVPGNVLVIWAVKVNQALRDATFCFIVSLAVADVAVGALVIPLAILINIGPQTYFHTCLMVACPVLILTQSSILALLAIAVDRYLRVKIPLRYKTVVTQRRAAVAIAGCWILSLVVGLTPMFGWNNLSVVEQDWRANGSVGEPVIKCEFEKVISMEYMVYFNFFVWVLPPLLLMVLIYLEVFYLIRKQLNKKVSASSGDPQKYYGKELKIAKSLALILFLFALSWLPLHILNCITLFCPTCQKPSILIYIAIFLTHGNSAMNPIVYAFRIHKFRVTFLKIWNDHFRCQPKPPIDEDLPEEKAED
Nature of the test: Radioligand Binding Assays. Here is the method: (§1) For the A2a receptor binding study, the incubation contained 10 mg of the original tissue weight of the striatal membranes, 4 nM [3H]NECA, 50 nM CPA, 10 mM MgCl2, 0.2 units/mL adenosine deaminase, the test compound and 1% DMSO. For the A1 receptor binding study, the incubations contained 5 mg of the original tissue weight of the whole brain membranes, 0.1 nM [3H]DPCPX, 0.2 units/mL adenosine deaminase, the test compound and 1% DMSO. The incubations were vortexed and incubated for 60 min at 25 °C in a shaking waterbath. Half an hour after incubation was started, the incubations were vortexed again. The incubations were terminated via filtration. The tubes were washed twice with 4 mL ice-cold Tris buffer and the filters were washed once more with 4mL ice-cold Tris buffer. The damp filters were place in scintillation vials and 4 mL of scintillation fluid was added. The vials were shaken and incubated for two hours before being counted.

The next test concerns the target Adenosine receptor A2a (Rattus norvegicus, UniProt P30543). In words: Radioligand Binding Assays. The procedure:
as §1

Test [1] deals with T2, Amine oxidase [flavin-containing] B (Homo sapiens, UniProt P27338).
T2 sequence (P27338 whole entry): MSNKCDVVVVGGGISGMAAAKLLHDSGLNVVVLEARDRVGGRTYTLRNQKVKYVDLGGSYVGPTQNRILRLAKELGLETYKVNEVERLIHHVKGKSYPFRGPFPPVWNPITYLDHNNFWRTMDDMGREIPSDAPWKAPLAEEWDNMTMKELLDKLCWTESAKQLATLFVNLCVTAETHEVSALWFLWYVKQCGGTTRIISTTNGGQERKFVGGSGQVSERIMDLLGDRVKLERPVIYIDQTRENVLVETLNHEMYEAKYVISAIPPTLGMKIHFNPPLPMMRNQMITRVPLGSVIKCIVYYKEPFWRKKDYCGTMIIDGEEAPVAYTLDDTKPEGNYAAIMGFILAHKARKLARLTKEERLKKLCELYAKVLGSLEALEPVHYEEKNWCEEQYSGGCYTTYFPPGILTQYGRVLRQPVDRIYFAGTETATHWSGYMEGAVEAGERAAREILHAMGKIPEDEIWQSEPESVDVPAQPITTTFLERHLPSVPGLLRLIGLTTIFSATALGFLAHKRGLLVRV
In words: MAO Inhibition Assays. Conditions: pH 7.4. Here is the method: The enzymatic reactions were carried out at pH 7.4 (K2HPO4/KH2PO4 100 mM, made isotonic with KCl) to a final volume of 500 µL. The reactions contained the different inhibitor concentrations spanning at least 3 orders of magnitude and the MAO-A/B mixed substrate kynuramine (45 µM for MAO-A and 30 µM for MAO-B). DMSO, as co-solvent (4%) was added to each reaction. The enzyme reactions were initiated with the addition of MAO-A or MAO-B (0.0075 mg protein/mL) and incubated for 20 min at 37 °C in a waterbath. After termination with the additionof 400 µL NaOH (2 N) and 1000 µL water, the concentrations of the MAO generated 4-hydroxyquinoline were measured by fluorescence spectrophotometry (excitation = […]; emission = […]).

SMILES strings stand for the structures. “And” between values parts separate entries of the source, which are not always exact repeats. Identical values can stand only once.

Adenosine receptor A2a, sequence (P30543 whole entry): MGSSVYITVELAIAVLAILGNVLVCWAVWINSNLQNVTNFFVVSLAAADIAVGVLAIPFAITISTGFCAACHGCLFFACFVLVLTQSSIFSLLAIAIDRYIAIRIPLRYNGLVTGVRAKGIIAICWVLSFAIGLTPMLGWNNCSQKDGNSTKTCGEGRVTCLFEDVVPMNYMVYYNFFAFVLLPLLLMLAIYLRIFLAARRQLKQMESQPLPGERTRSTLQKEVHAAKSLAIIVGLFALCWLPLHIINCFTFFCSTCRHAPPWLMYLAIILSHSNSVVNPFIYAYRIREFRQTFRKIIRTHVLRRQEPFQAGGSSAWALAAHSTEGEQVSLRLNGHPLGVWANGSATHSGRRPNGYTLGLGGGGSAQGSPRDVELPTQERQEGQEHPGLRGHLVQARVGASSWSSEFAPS

One may read the Ki as a dissociation constant, usually derived from enzyme kinetics or from competition with a known ligand. Low readings indicate a stronger hold on the target, high ones a looser hold on the target. With `O=C1NC(=O)c2cc(OCc3ccccc3)ccc21`, at Adenosine receptor A1, affinity was put at a Ki of 4670 nM.

For `COc1ccc(CSc2ccc3c(c2)C(=O)NC3=O)cc1`, the inhibition constant Ki at Adenosine receptor A1 was 369 nM and 1730 nM.

Consider `O=C1Nc2ccc(OCc3ccccc3)cc2C1=O` [5-Benzyloxyisatin], for which, at Adenosine receptor A1, the Ki worked out at 9790 nM.

As to `O=C1NC(=O)c2cc(SCc3ccc(F)cc3)ccc21`, the inhibition constant Ki was 36700 nM and 6300 nM on Adenosine receptor A1; 12.7 µM on Adenosine receptor A2a.

Regarding `O=C1NC(=O)c2cc(SCc3ccccc3)ccc21`, the Ki at Adenosine receptor A1 is 595 nM and 548 nM; on Adenosine receptor A2a it was 0.98 µM.

As a reminder, the IC50 is the concentration that gives 50% inhibition. A low value points to higher potency. For `O=C1NC(=O)c2cc(SCCc3ccccc3)ccc21`, the inhibition constant (Ki) is 1880 nM and 649 nM at Adenosine receptor A1; 17 µM on Adenosine receptor A2a. In test [1], this compound gave a 50% inhibitory concentration (IC50) of 3900 nM.

`O=C1NC(=O)c2cc(SCc3ccc(Cl)cc3)ccc21`: the half-inhibitory concentration (IC50) in test [1] was 460 nM.

On Adenosine receptor A1, `O=C1NC(=O)c2cc(SCc3ccc(Br)cc3)ccc21` showed an inhibition constant Ki of 676 nM.
